Article PMC8618880, “Discovery of GOT1 Inhibitors from a Marine-Derived Aspergillus terreus That Act against Pancreatic Ductal Adenocarcinoma” (Marine Drugs, 2021)

Columns and labels:
GOT1 [1] = target: T1, GOT1 (Homo sapiens, UniProt P17174); test: GOT1 enzymatic activity (inhibition) assay, MDH-coupled, absorbance 340 nm; format: biochemical; conditions: in vitro, read-out: GOT1-inhibitory activity IC50
Procedure: The GOT1 enzymatic activity assay was carried out using a 96-well plate reader as previously reported. The 100 μL reaction system contained 0.1 mg/mL recombinant GOT1 protein, 1 mM α -KG, 1 mM NADH, 4 mM Asp, and 1 U/mL malate dehydrogenase, and measured absorbance at a wavelength of 340 nm. The degree of absorbance decrease was in direct proportion to GOT1 activity. The inhibitory activity in vitro was measured by adding different concentrations of compounds. SigmaPlot with the PlotEnzyme Kinetics Module was used to analyze the enzyme activity.

[2] = MTT cell viability assay, nonmalignant pancreatic duct epithelial cells; format: cell-based; conditions: human, HPDE6C7 nonmalignant pancreatic duct epithelial cells, read-out: cytotoxicity IC50
Procedure: (§1) Pancreas (SW1990, AsPC-1, PANC-1), colorectal (HCT116), breast (HCC1806, MM231, MM453), and ovarian cancer cells (ES2), along with a nonmalignant human pancreatic duct epithelial cell line (HDPE6C7), were obtained from ATCC, and were cultured in 1640 medium or Dulbecco’s modified Eagle medium (DMEM) supplemented with 10% (v/v) fetal bovine serum (FBS), 100 μg/mL streptomycin, and 100 U/mL penicillin. Cells were maintained in a humidified atmosphere of 5% CO2 at 37 °C. MTT (3-(4,5-dimethylthiazol-2-yl)-2,5-diphenyl tetrazolium bromide) assay was used to assess the cell viability. Briefly, cells were seeded in 96-well plates at a density of 5 × 10^3 cells per well for 24 h. Then, the medium was removed, and the cells were treated with different concentrations (0.1–100 μM) of AH, with DMSO as a vehicle control. After incubation for 48 h, 100 μL of MTT solution (2 mg/mL) was added to each well, and the wells were incubated at 37 °C for another 4 h. The formed formazan crystals were dissolved in DMSO (200 μL/well) and shaken for 5 min. Then, the absorbance of the solution was measured at 490 nm with a microplate reader. IC50 values were interpolated from the resulting dose-dependent curves using GraphPad Prism 7.0. The reported IC50 values are the average of three independent experiments, each consisting of six replicates per concentration level (overall n = 18).

SW1990 cells [3] = test: Cell cycle assay, PI staining, flow cytometry; format: cell-based, human
Procedure: The phase distribution of DNA content was determined via propidium iodide (PI) staining. Cells were treated with varying doses of AH or vehicle for 48 h, and then the cell pellets were stained in the dark for 30 min with 60 μg/mL RNase A and 30 μg/mL PI. Finally, CellQuest software (Becton-Dickinson, Franklin Lakes, NJ, USA) was used to perform flow cytometric studies. Three separate experiments were used to determine the cell cycle.

SW1990 xenografts = test: SW1990 xenograft in CB-17/SCID mice; format: in vivo
Procedure: Animal treatment and experiments were conducted in the Experimental Animal Center. Commercial 8-week-old CB-17/SCID mice (male) were purchased from Huafukang, China. After being resuspended using 0.1 mL of PBS, SW1990 cells (3 × 10^6) were injected subcutaneously into the lower flanks of the mice. When the tumors attained a diameter of ~3 mm, the mice were randomly divided into three groups—2.5 mg/kg, 5 mg/kg, and control—and were subsequently injected intraperitoneally with normal saline or AH every day. A Vernier caliper was used to measure the size of the tumors. After two weeks of therapy, mice were euthanized under deep anesthesia (chloral hydrate, 10%, 10 μL/g), and tumor tissue metabolites were detected using the above method. All animal studies were carried out in accordance with the Huazhong University of Science and Technology’s guidelines.

SW1990 cells [4] = test: Intracellular ROS measurement with DCFDA; format: cell-based, human; conditions: AH 10, 20 or 40 µM
Description: GOT1 is a key enzyme that is involved in the production of Gln-dependent NADPH in PDAC, and catalyzes the reversible conversion of Asp to OAA. To investigate the effects of AH on Gln metabolism, the associated metabolites including OAA and malate (Mal) were detected. […] As excessive reactive oxygen species (ROS) can enhance cellular oxidative stress—resulting in damage to DNA, proteins, or lipids, causing apoptosis or necrosis [29]—we examined the physiological correlation between AH treatment and ROS response. 2,7-Dichlorofluorescein diacetate (DCFDA) was used to measure the intracellular ROS levels.

SW1990 cells [5] = test: Metabolite abundance and NADPH/NADP+ ratio in cells; format: cell-based, human; conditions: AH 10, 20 or 40 µM
Procedure: SW1990 cells were cultivated to around 50% confluence in DMEM media with 10 mM glucose, 2 mM glutamine, and 5% FBS. A complete medium was prepared prior to two hours of metabolite collection. Quantification kits were used to determine the abundance of Asp (Abcam, #ab102512, Cambridge, UK), Gln (BioVision, #K55, San Francisco, CA, USA), malate (BioVision, #K637, San Francisco, CA, USA), and OAA (Abcam, #ab83428, Cambridge, UK). According to the manufacturer’s instructions, we collected some cells and homogenized them in the buffers provided. The supernatants were centrifuged, and then deproteinized using a 10 K spin column before being analyzed and compared to standard curves.

[6] = system: SW1990, PANC-1, and AsPC-1 cell lines; test: MTT cell viability assay, PDAC cell lines; format: cell-based; conditions: Homo sapiens, 48 h, read-out: cytotoxicity IC50
Procedure: as §1

GOT1 [7] = target: T1, GOT1; test: Microscale thermophoresis (MST) binding to GOT1; conditions: read-out: Kd value between AH and GOT1
Procedure: The Monolith NTTM Protein Labeling Kit was used to test the binding capacity of proteins to AH, according to the manufacturer’s instructions. GOT1 was labeled and diluted in a buffer containing 20 mM HEPES (pH 7.5) and Tween-20 (0.5 (v/v)%), and then incubated with different concentration of AH for 10 min at 37 °C. Subsequently, the materials were put into standard capillary tubes and tested for thermophoresis using a Monolith NT.115 instrument (NanoTemper Technologies, München, Germany). The parameters were set to temperature 25 °C, LED power 100%, and laser power 40%, with a 30 s on-time. NTAnalysis software was used to calculate the Kd values.

SW1990 cells [8] = test: EDU staining and wound-healing cell migration test; format: cell-based, human; conditions: 0-40 µM, 0-48 h
Procedure: SW1990 cells were seeded in 6-well plates for 24 h. Each well was scratched with a 10 μL pipette tip, and then the plate was washed with PBS to peel off the suspended cells, before adding different concentrations of AH (0–40 μM). Images from the same area of the wound were taken separately under a microscope from 0 to 48 h.

SW1990 cells [9] = test: Annexin V-FITC/PI apoptosis assay by flow cytometry; format: cell-based, human; conditions: 48 h
Procedure: The Annexin V–FITC apoptosis kit was purchased from USA BD PharMingen™. In brief, different concentrations of AH were added to the wells for 48 h, and then the cells were harvested, before being resuspended in Annexin-binding buffer and incubated with Annexin V–FITC (10 mg/mL) and PI in the dark for 15 min. Flow cytometry was used to detect the stained cells and analyze the apoptosis immediately.

[10] = 2.5 and 5 mg/kg/d intraperitoneal, 14 days
[11] = tumor tissue after 14 days treatment

T1 sequence (P17174 whole entry): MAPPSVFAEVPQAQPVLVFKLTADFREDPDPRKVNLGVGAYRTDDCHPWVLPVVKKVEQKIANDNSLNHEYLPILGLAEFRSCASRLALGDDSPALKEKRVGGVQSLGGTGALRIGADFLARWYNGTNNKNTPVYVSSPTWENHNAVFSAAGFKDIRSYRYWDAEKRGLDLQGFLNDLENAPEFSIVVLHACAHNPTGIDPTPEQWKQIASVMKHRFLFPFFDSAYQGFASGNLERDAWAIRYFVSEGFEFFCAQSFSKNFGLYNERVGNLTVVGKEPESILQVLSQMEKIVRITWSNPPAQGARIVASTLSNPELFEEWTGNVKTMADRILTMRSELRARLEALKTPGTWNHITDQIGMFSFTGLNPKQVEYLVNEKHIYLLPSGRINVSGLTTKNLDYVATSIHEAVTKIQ

Compound `COC(=O)[C@]1(Cc2ccc(O)c(CC=C(C)C)c2)OC(=O)C(O)=C1c1ccc(O)c(CC=C(C)C)c1` [Compound 12, (+)-3′,3′-di-(dimethylallyl)-butyrolactone II] has an IC50 (GOT1 [1]) of 26.38 ± 0.1 µM.
In the case of `CO[C@H]1OC(=O)C(c2ccc(O)cc2)=C1Cc1ccc(O)c(CC=C(C)C)c1` [Compound 5, (+)-asperteretone B], the IC50 (GOT1 [1]) is reported as 19.16 ± 0.15 µM.
For `CC(C)=CCc1cc(/C=C2\OC(=O)C(c3ccc(O)c(CC=C(C)C)c3)=C2O)ccc1O` [Compound 6, aspulvinone H], the IC50 at 48 h [2] was > 100 µM, the “proportion of S-phase cells” value (SW1990 cells [3]; SW1990, 10 µM) was 32.5% and the “proportion of cells in G0/G1 phase” value (SW1990 cells [3]; SW1990, 10 µM) was 59.4%. For the same compound, the “proportion of S-phase cells” value (SW1990 cells [3]; SW1990, 20 µM) was 38.6%, the “proportion of cells in G0/G1 phase” value (SW1990 cells [3]; SW1990, 20 µM) was 48.6% and the “proportion of S-phase cells” value (SW1990 cells [3]; SW1990, 40 µM) was 43.9%. For the same compound, the “proportion of cells in G0/G1 phase” value (SW1990 cells [3]; SW1990, 40 µM) was 43.5%, the “change in G2/M phase” value (SW1990 cells [3]; SW1990, high-dose AH) was “only a slight increase” and the “body weight of the mice” value (SW1990 xenografts; [10]) was “no significant changes”. The “histomorphology of the mice” value (SW1990 xenografts; [10]) was “no significant changes”, the “tumor volume vs control group” value (SW1990 xenografts; 2.5 and 5 mg/kg/d intraperitoneal, 14 days, CB-17/SCID mice) was “significantly smaller” and the “tumor tissue Asp” value (SW1990 xenografts; [11]) was “increased”. The “tumor tissue Gln” value (SW1990 xenografts; [11]) was “increased”, the “tumor tissue Mal” value (SW1990 xenografts; [11]) was “decreased” and the “tumor tissue OAA” value (SW1990 xenografts; [11]) was “decreased”. For the same compound, the “tumor tissue proportion of NADPH/NADP+” value (SW1990 xenografts; [11]) was “decrease”, the “intracellular ROS level” value (SW1990 cells [4]) was “positively correlated” and the “content of Asp” value (SW1990 cells [5]) was “increasing”. The “content of Mal” value (SW1990 cells [5]) was “reduced”, the “content of OAA” value (SW1990 cells [5]) was “reduced” and the “ratio of NADPH/NADP+” value (SW1990 cells [5]) was “remarkably decreased”. The IC50 [6] was 6.32 to 10.5 µM, the Kd (GOT1 [7]) was 2.14 ± 0.47 µM and the “proliferation and migration (EDU staining, wound healing)” value (SW1990 cells [8]) was “anti-proliferative effect”. For the same compound, the apoptosis induction rate (SW1990 cells [9]; SW1990, 10 µM) was 9.5%, the apoptosis induction rate (SW1990 cells [9]; SW1990, 40 µM) was 80.2% and the IC50 (GOT1 [1]) was 5.91 ± 0.04 µM.
